These results are taken from patent publication US12581252B2, “Substituted pyrrolo[3,4-b]pyridines as PI3K-α inhibitors” (Relay Therapeutics, Inc., priority 2020, dated 2026).

H1047R PIK3CA enzyme, sequence (P42336 whole entry H1047R): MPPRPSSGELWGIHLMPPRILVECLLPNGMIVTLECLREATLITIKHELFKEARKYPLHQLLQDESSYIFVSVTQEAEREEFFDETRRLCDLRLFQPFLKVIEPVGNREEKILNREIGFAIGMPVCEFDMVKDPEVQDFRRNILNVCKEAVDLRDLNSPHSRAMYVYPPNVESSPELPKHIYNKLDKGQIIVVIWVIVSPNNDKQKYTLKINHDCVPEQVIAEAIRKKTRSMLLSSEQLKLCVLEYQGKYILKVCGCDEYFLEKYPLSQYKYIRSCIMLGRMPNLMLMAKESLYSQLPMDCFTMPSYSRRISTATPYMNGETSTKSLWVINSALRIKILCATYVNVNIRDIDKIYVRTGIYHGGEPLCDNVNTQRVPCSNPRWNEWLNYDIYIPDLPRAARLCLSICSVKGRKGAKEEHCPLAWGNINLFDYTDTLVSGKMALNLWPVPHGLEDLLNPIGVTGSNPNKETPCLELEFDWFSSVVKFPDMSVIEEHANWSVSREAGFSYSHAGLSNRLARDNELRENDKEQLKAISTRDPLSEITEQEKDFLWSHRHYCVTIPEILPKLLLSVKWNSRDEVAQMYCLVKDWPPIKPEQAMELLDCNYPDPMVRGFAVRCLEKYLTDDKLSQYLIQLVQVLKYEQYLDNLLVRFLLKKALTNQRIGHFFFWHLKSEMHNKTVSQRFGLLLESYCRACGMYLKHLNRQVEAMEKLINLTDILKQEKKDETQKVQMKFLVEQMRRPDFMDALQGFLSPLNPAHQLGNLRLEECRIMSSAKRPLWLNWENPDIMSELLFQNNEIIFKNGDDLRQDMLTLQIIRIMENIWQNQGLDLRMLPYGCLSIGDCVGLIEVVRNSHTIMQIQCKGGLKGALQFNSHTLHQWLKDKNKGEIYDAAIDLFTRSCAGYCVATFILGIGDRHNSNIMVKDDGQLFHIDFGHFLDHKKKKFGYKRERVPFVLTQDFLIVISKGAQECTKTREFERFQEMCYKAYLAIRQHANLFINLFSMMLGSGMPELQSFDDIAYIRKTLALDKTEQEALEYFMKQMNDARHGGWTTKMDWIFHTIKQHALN
H1047R PIK3CA enzyme, sequence (P27986 whole entry partner): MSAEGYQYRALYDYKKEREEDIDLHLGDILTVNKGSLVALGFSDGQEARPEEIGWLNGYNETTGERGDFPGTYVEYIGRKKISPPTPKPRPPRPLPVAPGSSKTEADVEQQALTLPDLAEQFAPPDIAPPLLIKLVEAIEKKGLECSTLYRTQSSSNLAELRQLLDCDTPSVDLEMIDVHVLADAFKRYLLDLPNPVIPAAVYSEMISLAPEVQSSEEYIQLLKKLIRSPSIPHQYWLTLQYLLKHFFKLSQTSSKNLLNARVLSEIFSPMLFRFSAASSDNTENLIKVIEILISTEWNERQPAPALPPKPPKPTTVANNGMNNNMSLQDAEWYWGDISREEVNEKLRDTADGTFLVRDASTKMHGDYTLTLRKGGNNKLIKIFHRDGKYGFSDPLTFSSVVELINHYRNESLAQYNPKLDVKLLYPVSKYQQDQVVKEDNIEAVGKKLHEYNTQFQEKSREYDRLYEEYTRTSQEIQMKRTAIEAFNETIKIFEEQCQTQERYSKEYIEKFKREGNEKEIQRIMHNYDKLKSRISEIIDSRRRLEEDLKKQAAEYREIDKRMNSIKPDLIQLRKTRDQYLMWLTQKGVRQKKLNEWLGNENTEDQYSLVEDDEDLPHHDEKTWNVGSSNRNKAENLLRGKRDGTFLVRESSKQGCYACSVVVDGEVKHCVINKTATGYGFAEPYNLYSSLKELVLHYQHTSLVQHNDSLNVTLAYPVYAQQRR

The assay concerns the target H1047R PIK3CA enzyme (Homo sapiens, UniProt P42336, H1047R). Kind of assay: ADP-Glo Biochemical PIK3CA Kinase Assay. As for the experimental part:
Compounds to be assayed were plated in 16 doses of 1:2 serial dilutions (20 nL volume each well) on a 1536-well plate, and the plate warmed to room temperature. […] To the well was added 1 μL of 200 μM ATP and 20 μM of diC8-PIP2 in Substrate Assay Buffer (50 mM HEPES pH7.4, 50 mM NaCl, 5 mM DTT and 0.03% CHAPS) to start the reaction, and the plate was shaken for 10 seconds, then spun briefly at 1500 rpm, and then incubated for 60 minutes at room temperature. The reaction was stopped by adding 2 μL of ADP-Glo reagent (Promega), and spinning briefly at 1500 rpm, and then incubating for 40 minutes. ADP-Glo Detection reagent (Promega) was added and the plate spun briefly at 1500 rpm, then incubated for 30 minutes.
On the technique in general: ADP-Glo first removes unused ATP, then detects ADP through luciferase.
Usually IC50 stands for the concentration that inhibits the measured activity by half. A higher IC50 goes with lower potency. For `C[C@](O)(CC#N)c1cc(NC(=O)c2cc(F)cc(C(F)(F)F)c2)c2c(c1)C(=O)N[C@@H]2c1cc(F)ccc1Cl` (single isomer, unassigned) [Compound I-1396], the IC50 was in the range of 1 to 10 µM.

For `O=C(Nc1cc(-c2ccnn2C[C@H]2CCOC2)cc2c1C(c1cc(F)ccc1Cl)NC2=O)c1cc(F)cc(C(F)(F)F)c1` (single isomer, unassigned) [Compound I-1406], the half-maximal inhibitory concentration (IC50) is no more than 0.1 µM.

For the molecule `O=C(Nc1cc(-c2ccnn2C[C@@H]2CCOC2)cc2c1C(c1cc(F)ccc1Cl)NC2=O)c1cc(F)cc(C(F)(F)F)c1` (single isomer, unassigned) [Compound I-1407], the concentration for half-maximal inhibition (IC50) was no more than 0.1 µM.

`CC(=O)N1CCC[C@@H](Oc2cc(NC(=O)c3cc(F)cc(C(F)(F)F)c3)c3c(c2)C(=O)NC3c2cc(F)ccc2Cl)C1` (single isomer, unassigned) [Compound I-1431] showed a half-maximal inhibitory concentration (IC50) of no more than 0.1 µM.

For the molecule `CC(=O)N1CCC[C@H]1COc1cc(NC(=O)c2cc(F)cc(C(F)(F)F)c2)c2c(c1)C(=O)NC2c1cc(F)ccc1Cl` (single isomer, unassigned) [Compound I-1466], the IC50 was no more than 0.1 µM.

Take `CC(=O)N1CCC[C@@H]1COc1cc(NC(=O)c2cc(F)cc(C(F)(F)F)c2)c2c(c1)C(=O)NC2c1cc(F)ccc1Cl` (single isomer, unassigned) [Compound I-1467]: the IC50 was no more than 0.1 µM.

`O=C(Nc1cc(OC[C@@H]2CCCN2)cc2c1C(c1cc(F)ccc1Cl)NC2=O)c1cc(F)cc(C(F)(F)F)c1` (single isomer, unassigned) [Compound I-1468] registered an IC50 of 0.1 to 0.5 µM.

For the molecule `C[C@]1(O)CN(C(=O)Nc2cc(Br)cc3c2C(c2cc(F)ccc2Cl)NC3=O)c2ccccc21` (single isomer, unassigned) [Compound I-1508], the IC50 is 1 to 10 µM.

In turn, `C[C@@]1(O)CN(C(=O)Nc2cc(Br)cc3c2C(c2cc(F)ccc2Cl)NC3=O)c2ccccc21` (single isomer, unassigned) [Compound I-1511] gave a half-maximal inhibitory concentration (IC50) of no more than 0.1 µM.

`O=C1N[C@H](c2cc(F)ccc2Cl)c2c(NC(=O)N3C[C@H](O)c4ccccc43)cc(Br)cc21` (single isomer, unassigned) [Compound I-1513] came in with an IC50 of 0.1 to 0.5 µM.

The molecule `O=C(Nc1cc(OC[C@@H]2CCO2)cc2c1[C@H](c1cc(F)ccc1Cl)NC2=O)c1cc(F)cc(C(F)(F)F)c1` (single isomer, unassigned) [Compound I-1517] yielded an IC50 of no more than 0.1 µM.

`O=C(Nc1cc(OC[C@H]2CCO2)cc2c1[C@H](c1cc(F)ccc1Cl)NC2=O)c1cc(F)cc(C(F)(F)F)c1` (single isomer, unassigned) [Compound I-1518] showed an IC50 of no more than 0.1 µM.

On to `O=C(Nc1cc(OC[C@@H]2CCO2)cc2c1[C@@H](c1cc(F)ccc1Cl)NC2=O)c1cc(F)cc(C(F)(F)F)c1` (single isomer, unassigned) [Compound I-1519], for which the IC50 lay in the range of 10 to 100 µM.

In turn, `O=C(Nc1cc(OC[C@H]2CCO2)cc2c1[C@@H](c1cc(F)ccc1Cl)NC2=O)c1cc(F)cc(C(F)(F)F)c1` (single isomer, unassigned) [Compound I-1520] showed an IC50 of 10 to 100 µM.

As for `CN1C[C@H](COc2cc(NC(=O)c3cc(F)cc(C(F)(F)F)c3)c3c(c2)C(=O)N[C@@H]3c2cc(F)ccc2Cl)CC1=O` (single isomer, unassigned) [Compound I-1521], the 50% inhibitory concentration (IC50) is no more than 0.1 µM.

As to `CN1C[C@H](COc2cc(NC(=O)c3cc(F)cc(C(F)(F)F)c3)c3c(c2)C(=O)N[C@H]3c2cc(F)ccc2Cl)CC1=O` (single isomer, unassigned) [Compound I-1522], the IC50 was no more than 0.1 µM.

With `CN1C[C@@H](COc2cc(NC(=O)c3cc(F)cc(C(F)(F)F)c3)c3c(c2)C(=O)N[C@@H]3c2cc(F)ccc2Cl)CC1=O` (single isomer, unassigned) [Compound I-1523], the IC50 is 1 to 10 µM.

Regarding `CN1C[C@@H](COc2cc(NC(=O)c3cc(F)cc(C(F)(F)F)c3)c3c(c2)C(=O)N[C@H]3c2cc(F)ccc2Cl)CC1=O` (single isomer, unassigned) [Compound I-1524], the IC50 is 10 to 100 µM.

Turning to `CC(=O)N1CCC[C@H](Oc2cc(NC(=O)c3cc(F)cc(C(F)(F)F)c3)c3c(c2)C(=O)NC3c2cc(F)ccc2Cl)C1` (single isomer, unassigned) [Compound I-1525], the concentration for half-maximal inhibition (IC50) is 0.1 to 0.5 µM.

Consider `CC(=O)N1CC[C@H](Oc2cc(NC(=O)c3cc(F)cc(C(F)(F)F)c3)c3c(c2)C(=O)NC3c2cc(F)ccc2Cl)C1` (single isomer, unassigned) [Compound I-1541], for which the IC50 is 0.1 to 0.5 µM.

In turn, `O=C(Nc1cc(-c2cnn(-c3ncccn3)c2)cc2c1C(c1cc(F)ccc1Cl)NC2=O)c1cc(F)cc(C(F)(F)F)c1` (single isomer, unassigned) [Compound I-1554] yielded an IC50 of 1 to 10 µM.

As to `O=C(Nc1cc(-c2cnn(-c3ncccn3)c2)cc2c1C(c1cc(F)ccc1Cl)NC2=O)c1cc(F)cc(C(F)(F)F)c1` (single isomer, unassigned) [Compound I-1555], the IC50 was no more than 0.1 µM.

`O=C1NC[C@H](c2cc(NC(=O)c3cc(F)cc(C(F)(F)F)c3)c3c(c2)C(=O)N[C@@H]3c2cc(F)ccc2Cl)O1` (single isomer, unassigned) [Compound I-1558] registered an IC50 of 0.1 to 0.5 µM.

Regarding `O=C1NC[C@H](c2cc(NC(=O)c3cc(F)cc(C(F)(F)F)c3)c3c(c2)C(=O)N[C@H]3c2cc(F)ccc2Cl)O1` (single isomer, unassigned) [Compound I-1559], the half-maximal inhibitory concentration (IC50) was no more than 0.1 µM.

`O=C1NC[C@@H](c2cc(NC(=O)c3cc(F)cc(C(F)(F)F)c3)c3c(c2)C(=O)N[C@@H]3c2cc(F)ccc2Cl)O1` (single isomer, unassigned) [Compound I-1560]: the IC50 was in the range of 0.5 to 1 µM.

Consider `C[S@](=O)(Cc1cc(NC(=O)c2cc(F)cc(C(F)(F)F)c2)c2c(c1)C(=O)N[C@@H]2c1cc(F)ccc1Cl)=NC#N` (single isomer, unassigned) [Compound I-1561], for which the IC50 was 0.1 to 0.5 µM.

Turning to `O=C1NC[C@@H](c2cc(NC(=O)c3cc(F)cc(C(F)(F)F)c3)c3c(c2)C(=O)N[C@H]3c2cc(F)ccc2Cl)O1` (single isomer, unassigned) [Compound I-1562], the IC50 is no more than 0.1 µM.

Take `C[S@](=O)(Cc1cc(NC(=O)c2cc(F)cc(C(F)(F)F)c2)c2c(c1)C(=O)N[C@@H]2c1cc(F)ccc1Cl)=NC#N` (single isomer, unassigned) [Compound I-1563]: the IC50 was no more than 0.1 µM.

As to `C[S@](=O)(Cc1cc(NC(=O)c2cc(F)cc(C(F)(F)F)c2)c2c(c1)C(=O)N[C@H]2c1cc(F)ccc1Cl)=NC#N` (single isomer, unassigned) [Compound I-1564], the 50% inhibitory concentration (IC50) was no more than 0.1 µM.

Molecule `C[S@@](=O)(Cc1cc(NC(=O)c2cc(F)cc(C(F)(F)F)c2)c2c(c1)C(=O)N[C@H]2c1cc(F)ccc1Cl)=NC#N` (single isomer, unassigned) [Compound I-1565] showed an IC50 of no more than 0.1 µM.

In turn, `CN1C(=O)CC[C@@H]1COc1cc(NC(=O)c2cc(F)cc(C(F)(F)F)c2)c2c(c1)C(=O)N[C@H]2c1cc(F)ccc1Cl` (single isomer, unassigned) [Compound I-1567] came in with an IC50 of no more than 0.1 µM.

Molecule `CN1C(=O)CC[C@H]1COc1cc(NC(=O)c2cc(F)cc(C(F)(F)F)c2)c2c(c1)C(=O)N[C@@H]2c1cc(F)ccc1Cl` (single isomer, unassigned) [Compound I-1568] registered an IC50 of 1 to 10 µM.

Turning to `CN1C(=O)CC[C@@H]1COc1cc(NC(=O)c2cc(F)cc(C(F)(F)F)c2)c2c(c1)C(=O)N[C@@H]2c1cc(F)ccc1Cl` (single isomer, unassigned) [Compound I-1569], the IC50 lay in the range of 10 to 100 µM.

`O=C1N[C@@H](c2cc(F)ccc2Cl)c2c(NC(=O)N3C[C@H](O)c4ccccc43)cc(-c3ccc4ncnn4c3)cc21` (single isomer, unassigned) [Compound I-1576] gave an IC50 of 0.1 to 0.5 µM.

Molecule `O=C1N[C@@H](c2cc(F)ccc2Cl)c2c(NC(=O)N3C[C@@H](O)c4ccccc43)cc(-c3ccc4ncnn4c3)cc21` (single isomer, unassigned) [Compound I-1577] had a half-maximal inhibitory concentration (IC50) of no more than 0.1 µM.

Turning to `O=C1N[C@H](c2cc(F)ccc2Cl)c2c(NC(=O)N3C[C@H](O)c4ccccc43)cc(-c3ccc4ncnn4c3)cc21` (single isomer, unassigned) [Compound I-1578], the IC50 was 10 to 100 µM.

The molecule `O=C1N[C@H](c2cc(F)ccc2Cl)c2c(NC(=O)N3C[C@@H](O)c4ccccc43)cc(-c3ccc4ncnn4c3)cc21` (single isomer, unassigned) [Compound I-1579] gave an IC50 of 0.5 to 1 µM.

`[2H][C@]1(c2cc(F)ccc2Cl)NC(=O)c2cc(-c3ccc4ncnn4c3)cc(NC(=O)c3cc(F)cc(C(F)(F)F)c3)c21` (single isomer, unassigned) [Compound I-1600]: the IC50 is no more than 0.1 µM.

`[2H][C@@]1(c2cc(F)ccc2Cl)NC(=O)c2cc(-c3ccc4ncnn4c3)cc(NC(=O)c3cc(F)cc(C(F)(F)F)c3)c21` (single isomer, unassigned) [Compound I-1601]: the IC50 is no more than 0.1 µM.

Regarding `C[C@@H](c1cc(NC(=O)c2cc(F)cc(C(F)(F)F)c2)c2c(c1)C(=O)N[C@@H]2c1cc(F)ccc1Cl)S(C)(=O)=O` (single isomer, unassigned) [Compound I-1640], the IC50 was in the range of 1 to 10 µM.

Molecule `C[C@@H](c1cc(NC(=O)c2cc(F)cc(C(F)(F)F)c2)c2c(c1)C(=O)N[C@H]2c1cc(F)ccc1Cl)S(C)(=O)=O` (single isomer, unassigned) [Compound I-1641] yielded an IC50 of no more than 0.1 µM.

The molecule `C[C@H](c1cc(NC(=O)c2cc(F)cc(C(F)(F)F)c2)c2c(c1)C(=O)N[C@H]2c1cc(F)ccc1Cl)S(C)(=O)=O` (single isomer, unassigned) [Compound I-1642] gave an IC50 of no more than 0.1 µM.
